Laboratory results published in patent publication US20230330064A1, “TYROSINE, TRYPTOPHAN AND PHENYLALANINE AS mTOR AGONISTS MEDIATING PROTEASOME DYNAMICS, COMPOSITIONS, METHODS AND USES THEREOF IN THERAPY, AND PROGNOSTIC METHODS FOR DRUG-RESISTANCE” (Technion Research & Development Foundation Limited, priority 2020, published 2023).

What was measured:
MCF-7 = settings: cited from earlier work
26S proteasome = assay: Proteasome subcellular localization in cultured cells (immunofluorescence, western blot of nuclear fractions); assay type: cell-based; settings: for starvation-induced proteasome translocation from the nucleus to the cytosol: substance added to amino acid starvation medium, 8 h
Experimental: (§1) Cells were seeded on glass cover slips for 36 h. Following the indicated treatments, they were fixed with 4% PFA for 15 min, washed with (phosphate-buffered saline) PBS and incubated in PBS containing 10% goat serum for 1h at room temperature, followed by 2 h incubation with the indicated primary antibody. Following extensive wash with PBS, the fixed cells were incubated with the relevant secondary antibody for 1 h, washed and mounted. Images were acquired using Zeiss LSM 700 confocal microscope (Zeiss, Oberkochen, Germany).
The proteasome subunits α6, β1, and PSMD1 were visualized via indirect immunofluorescence, using primary and secondary antibodies listed under Key Resources Table. To observe the proteasome in live cells, we expressed the cDNAs of the β4, Rpn2, Rpn6, and Rpn13 proteasome subunits C-terminally fused with GFP. Photoconversion of proteasome-fused Dendra2 was carried out as previously described (McKinney et al., 2009 Nat Methods. 131-133).
Cells were incubated for 20 min in fractionation buffer [20 mM HEPES pH 7.3, 10 mM KCl, 5 mM ATP, 5 mM MgCl2, and protease inhibitor cocktail (Roche)], followed by the addition of NP-40 (to 0.1%). They were then mixed thoroughly and centrifuged at 1,000×g for 5 min. The supernatant was collected as cytosolic fraction, and the pellet (nuclei) was washed twice with PBS. To dissolve the nuclear pellet, fractionation buffer supplemented with 0.5% sodium deoxycholate was added followed by sonication.
(§2) Cells were washed twice with ice cold PBS and scraped into lysis buffer (50 mM Tris-HCl, pH 7.4, 130 mM NaCl, 0.5% NP-40) supplemented with freshly added protease inhibitor cocktail, 5 mM ATP, 10 mM iodoacetamide, and 5 mM N-ethyl maleimide. Protein concentration was measured by the BCA assay according to the manufacturer's instructions (Pierce, Rockford, IL). 30 μg of cellular protein were resolved via SDS-PAGE, transferred to a nitrocellulose membrane and immunoblotted with the appropriate antibody.

exportin-1 = molecular target: T1, exportin-1 (Homo sapiens, UniProt O14980); assay: Nuclear export of exportin-1 substrates (p65, APC, NES-GFP) in HeLa cells; assay type: cell-based; settings: 8 h
T1 construct: endogenous in cells; host or cells: HeLa
T1 sequence (O14980 whole entry): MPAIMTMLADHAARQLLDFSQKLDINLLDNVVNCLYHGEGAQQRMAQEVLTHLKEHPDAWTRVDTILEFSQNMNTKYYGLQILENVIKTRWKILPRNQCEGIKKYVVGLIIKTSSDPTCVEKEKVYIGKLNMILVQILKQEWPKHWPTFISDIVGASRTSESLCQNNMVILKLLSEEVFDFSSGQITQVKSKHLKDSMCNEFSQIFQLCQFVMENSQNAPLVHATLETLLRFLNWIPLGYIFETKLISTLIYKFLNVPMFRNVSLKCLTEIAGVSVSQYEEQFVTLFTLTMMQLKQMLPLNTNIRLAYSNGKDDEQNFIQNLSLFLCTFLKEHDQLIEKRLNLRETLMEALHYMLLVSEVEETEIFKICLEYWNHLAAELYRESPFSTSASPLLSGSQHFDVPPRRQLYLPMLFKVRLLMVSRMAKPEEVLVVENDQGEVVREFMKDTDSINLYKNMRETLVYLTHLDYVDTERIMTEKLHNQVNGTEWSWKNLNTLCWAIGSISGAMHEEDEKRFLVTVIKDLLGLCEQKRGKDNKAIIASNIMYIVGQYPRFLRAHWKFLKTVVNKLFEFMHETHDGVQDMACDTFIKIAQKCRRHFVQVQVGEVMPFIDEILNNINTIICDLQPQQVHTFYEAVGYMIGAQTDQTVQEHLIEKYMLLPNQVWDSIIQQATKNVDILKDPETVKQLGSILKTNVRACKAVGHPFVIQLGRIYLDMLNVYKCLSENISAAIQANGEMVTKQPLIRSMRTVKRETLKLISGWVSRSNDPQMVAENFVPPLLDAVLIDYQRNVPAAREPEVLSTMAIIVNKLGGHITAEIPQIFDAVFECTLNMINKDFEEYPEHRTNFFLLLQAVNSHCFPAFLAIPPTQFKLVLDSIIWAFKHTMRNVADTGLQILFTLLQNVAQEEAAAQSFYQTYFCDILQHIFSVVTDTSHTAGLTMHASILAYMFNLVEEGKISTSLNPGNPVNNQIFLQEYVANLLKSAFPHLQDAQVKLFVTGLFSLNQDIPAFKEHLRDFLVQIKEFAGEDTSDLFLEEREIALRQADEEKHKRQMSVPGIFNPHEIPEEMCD
Experimental: FIG. 4G. HeLa cells were incubated under the indicated conditions, and the β4 subunit of the proteasome as well as the p65 subunit of NF-κB—which is a CRM1 substrate—were visualized.
FIG. 4H. HeLa cells were incubated under the indicated conditions, and the β4 subunit of the proteasome as well as the CRM1 substrate APC (adenomatous polyposis coli) were visualized.
FIG. 4I. HeLa cells infected with GFP fused to a nuclear export signal (NES) were incubated for 8h under the indicated conditions. The GFP was visualized.
as §1

cellular proteins [1] = assay: Degradation of radiolabeled cellular proteins; assay type: cell-based; settings: starved cells
Experimental: Cells were labeled with […] methionine and cysteine (20 μCi/ml) for 16 h. This was followed extensive washing and further incubation in a medium containing 2 mM of the two unlabeled amino acids for 8 h. Degradation rates were assessed by determining the release of labeled amino acids to the incubation medium relative to the radioactivity remained in the cellular proteins (using Trichloroacetic acid precipitation to separate between the two) (Gropper et al., 1991, JPEN J Parenter Enteral Nutr 15, 48-53.).

ubiquitin adducts = assay: Western blot for ubiquitin adducts; assay type: cell-based; settings: starved cells
Experimental: FIG. 5E. Western blot for ubiquitin adducts of extracts of cells treated as indicated. Intensities relative to control are presented.
as §2

proteasome = assay: Live imaging of proteasome activity probe Me4BodipyFL-Ahx3Leu3VS in cells; assay type: cell-based; settings: added to the starvation medium
Experimental: Live cell proteasome activity was followed as previously described (Berkers et al., 2007, Mol Pharm; 4(5):739-48.). In brief, Me4BodipyFL-Ahx3Leu3VS was added to the medium to a final concentration of 1 μM. Following incubation for 15 min, the cells were visualized by a Zeiss LSM 700 confocal microscope. In vitro proteasome activity assay was carried out as previously described (Braten et al., 2016). In brief, cellular fractions were incubated at 37° C. for 30 min with 5 μM Suc-LLVY-AMC (Succinyl-Lu-Leu-Val-Tyr-amido-4-methylcoumarin) in a reaction buffer (40 mM Tris-HCl pH 7.2, 2 mM DTT, 5 mM MgCl2, 10 mM creatine phosphate, 0.1 mg/ml creatine phosphate kinase, 5 mM ATP). Reactions were stopped by adding 1% SDS, and fluorescence was measured at 360 nm/460 nm (ex/em).

cellular proteins [2] = assay: Proteomic analysis of cellular protein levels; assay type: cell-based, human; settings: amino acid starvation
Experimental: 2-3 mg of cell extract protein in 8 M Urea and 100 mM ammonium bicarbonate, were incubated with DTT (2.8 mM; 30 min at 60° C.), modified with iodoacetamide (8.8 mM; 30 min at room temperature in the dark), and digested (overnight at 37° C.) with modified trypsin (Promega; 1:50 enzyme-to-substrate ratio) in 2 M Urea and 25 mM ammonium bicarbonate. Additional second trypsinization was carried out for 4 hours. The tryptic peptides were desalted using Sep-Pak C18 (Waters) and dried. 10 μg of protein were used for proteome analysis as described under Mass spectrometry.
Tryptic peptides were analyzed by LC-MS/MS using a Q Exactive plus mass spectrometer (Thermo Fisher Scientific) fitted with a capillary HPLC (easy nLC 1000, Thermo). […]
The mass spectrometry raw data were analyzed by the MaxQuant software (version 1.4.1.2, http://www.maxquant.org) for peak picking and quantification. […] The MaxQuant software was used for label-free semi-quantitative analysis [based on extracted ion currents (XICs) of peptides], enabling quantification from each LC/MS run for each peptide identified in any of the experiments. In samples that were SILAC-labeled, quantification was also carried out using the MaxQuant software. […]

[3] = Amino acids level measurement (LC-MS); assay type: cell-based; settings: Torin1-treated cells
Experimental: Metabolic analysis was carried out as previously described (MacKay et al., 2015). Briefly, cells were rapidly washed 3 times with ice-cold PBS and extracted with an aqueous solution of 50% Methanol, and 30% Acetonitrile. Samples were centrifuged at 16,000×g for 10 min at 4° C., and the supernatants were analyzed using HPLC-MS (Q-Exactive Orbitrap Mass Spectrometer (Thermo Scientific) coupled to Thermo Scientific UltiMate 3000 HPLC system). The HPLC setup consisted of a ZIC-pHILIC column (SeQuant, 150×2.1 mm, 5 μm, Merck) with a ZIC-pHILIC guard column (SeQuant, 20×2.1 mm). The aqueous mobile phase solvent was 20 mM ammonium carbonate adjusted to pH 9.4 with 0.1% ammonium hydroxide. The organic mobile phase was acetonitrile. […] All metabolites were detected across a mass range of 75-1,000 m/z using the Q-Exactive mass spectrometer at a resolution of 35,000 (at 200 m/z) with electrospray ionization and polarity switching mode. […] The peak areas of different Amino Acids were determined using Thermo TraceFinder software through which metabolites were identified by the exact mass of the singly charged ion and by known retention time on the HPLC column. Commercially available standard compounds had been analyzed before to determine ion masses and retention times on the ZIC-pHILIC column. Protein quantitation based on the Lowry method was performed for normalization.

tumors = assay: Tumor model in mice, YWF versus various concentrations of F; assay type: in vivo; settings: various concentrations up to 45 mM
Experimental: The anti-tumorigenic effect of the indicated treatments was examined in vivo, using a tumor model in mice.
The inventors next aimed to assess the anti-tumorigenic effect of the above treatments in vivo, using a tumor model in mice. Following tumor formation, each group was treated with a different treatment, and the size of tumors was eventually compared relative to the control group (QLR).

cancer cells = assay: Cell viability of stressed (starved) and non-stressed cancer cells, YWF versus 45 mM F or W
Experimental: Since tumor cells are inherently stressed—due to high metabolic demands and poor perfusion of nutrients and oxygen, starved cells in culture were used in order to simulate the effect of the different treatments. Similarly, to simulation of the effect of each treatment on “normal” tissues in vivo—which are not stressed—the same amino acid(s) were added to non-starved cells in culture.

| SMILES | growth of MCF-7 cells (MCF-7) | proteasome distribution in cells lacking NUP93 (26S proteasome; NUP93 silenced, starvation) | proteasome localization without exogenous starvation (26S proteasome; non-stressed cells, complete medium) | starvation-induced proteasome translocation from the nucleus to the cytosol (26S proteasome) | cellular distribution of GFP fused to nuclear export signal (NES) (exportin-1) | starvation-induced stimulation of protein breakdown (cellular proteins [1]) | degradation and depletion of ubiquitin adducts (ubiquitin adducts) | migration of proteasomal activity from the nucleus (proteasome) | starvation-induced reduction in the level of ~900 proteins (cellular proteins [2]) | gain in amino acids produced by Torin1 [3] | benefit on tumor growth relative to control group (QLR) (tumors) | elimination of stressed cancerous cells in culture (cancer cells) |
| --- | --- | --- | --- | --- | --- | --- | --- | --- | --- | --- | --- | --- |
| N[C@@H](Cc1c[nH]c2cccc(F)c12)C(=O)O [L-(4-F) Trp] | completely inhibited the growth |  |  |  |  |  |  |  |  |  |  |  |
| CCC(=C/[C@H](C)C/C=C/C(C)=C/[C@@H](C)C(=O)[C@@H](C)[C@H](O)[C@@H](C)C/C(C)=C/C(=O)O)/C=C/[C@@H]1OC(=O)C=C[C@@H]1C [LMB, Leptomycin B] |  | neither YWF nor LMB had a significant effect on its distribution | nuclear accumulation of the proteasome | inhibition of the translocation | leads to nuclear accumulation | inhibition of starvation-induced stimulation of protein breakdown | inhibits degradation and depletion of ubiquitin adducts | inhibits the migration of proteasomal activity from the nucleus | prevented | significantly inhibits the gain in amino acids |  |  |
| N[C@@H](Cc1ccccc1)C(=O)O [Phe, Phenylalanine] |  |  |  | significant effect |  |  |  |  |  |  | did not result in any benefit | clearly inferior to the mixture of YWF |
